Assay results as given in ChEMBL document CHEMBL4002647, “BMS-933043, a Selective α7 nAChR Partial Agonist for the Treatment of Cognitive Deficits Associated with Schizophrenia” (ACS Med Chem Lett, 2017).
Activity calls are given as the source filed them. No cut-off for these calls is given here.

Experiments:
[1] = target: T1, Neuronal acetylcholine receptor subunit alpha-7 (Rattus norvegicus, UniProt Q05941); assay: Agonist activity at rat alpha7 nAChR expressed in HEK293 cells assessed as increase in Ca2+ flux by Fluo-4 AM dye based FLIPR assay; assay type: cell-based
T1 sequence (Q05941 whole entry): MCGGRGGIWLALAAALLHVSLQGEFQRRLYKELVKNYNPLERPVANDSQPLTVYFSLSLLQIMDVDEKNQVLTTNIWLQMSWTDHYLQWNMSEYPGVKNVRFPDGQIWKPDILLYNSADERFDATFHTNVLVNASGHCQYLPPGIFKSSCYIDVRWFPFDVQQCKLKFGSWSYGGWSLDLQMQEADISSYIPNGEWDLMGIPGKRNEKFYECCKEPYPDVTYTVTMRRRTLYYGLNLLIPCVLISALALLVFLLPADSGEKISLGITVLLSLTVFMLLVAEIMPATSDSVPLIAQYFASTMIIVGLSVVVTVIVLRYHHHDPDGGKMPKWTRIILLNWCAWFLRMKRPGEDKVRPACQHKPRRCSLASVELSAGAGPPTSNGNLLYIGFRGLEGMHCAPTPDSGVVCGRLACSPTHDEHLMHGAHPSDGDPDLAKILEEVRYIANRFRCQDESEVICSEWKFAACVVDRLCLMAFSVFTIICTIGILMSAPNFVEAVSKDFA

[2] = target: T1, Neuronal acetylcholine receptor subunit alpha-7; assay: Agonist activity at rat alpha7 nAChR expressed in HEK293 cells co-expressing human RIC3 assessed as area under current curve at holding potential of -90 mV by whole-cell voltage clamp electrophysiology method; assay type: cell-based
[3] = target: T2, Neuronal acetylcholine receptor subunit alpha-7 (Homo sapiens, UniProt P36544); assay: Agonist activity at human alpha7 nAChR expressed in HEK293 cells co-expressing human RIC3 assessed as induction of peak current amplitutde at 10 uM at holding potential of -90 mV by whole-cell voltage clamp electrophysiology method relative to acetylcholine; assay type: cell-based
T2 sequence (P36544 whole entry): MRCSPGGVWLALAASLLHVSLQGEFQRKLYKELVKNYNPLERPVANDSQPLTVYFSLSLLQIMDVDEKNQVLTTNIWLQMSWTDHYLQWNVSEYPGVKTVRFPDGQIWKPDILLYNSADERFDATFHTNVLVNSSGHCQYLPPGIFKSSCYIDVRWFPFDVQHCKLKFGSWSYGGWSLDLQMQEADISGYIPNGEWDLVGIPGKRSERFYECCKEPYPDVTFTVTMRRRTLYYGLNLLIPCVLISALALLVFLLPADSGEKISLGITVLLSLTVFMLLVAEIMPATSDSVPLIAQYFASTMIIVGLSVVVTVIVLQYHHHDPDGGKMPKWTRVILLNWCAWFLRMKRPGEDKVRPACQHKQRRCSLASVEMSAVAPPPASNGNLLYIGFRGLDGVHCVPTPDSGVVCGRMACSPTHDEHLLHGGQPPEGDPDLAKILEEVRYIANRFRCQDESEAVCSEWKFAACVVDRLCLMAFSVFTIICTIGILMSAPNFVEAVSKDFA

[4] = target: T2, Neuronal acetylcholine receptor subunit alpha-7; assay: Agonist activity at human alpha7 nAChR expressed in HEK293 cells co-expressing human RIC3 assessed as area under current curve at 10 uM at holding potential of -90 mV by whole-cell voltage clamp electrophysiology method relative to acetylcholine; assay type: cell-based
[5] = target: T2, Neuronal acetylcholine receptor subunit alpha-7; assay: Agonist activity at human alpha7 nAChR expressed in HEK293 cells co-expressing human RIC3 assessed as area under current curve at holding potential of -90 mV by whole-cell voltage clamp electrophysiology method; assay type: cell-based
[6] = target: Nicotinic acetylcholine receptor alpha-1/beta-1/delta/epsilon (Rattus norvegicus, UniProt P09660+P25108+P25109+P25110); assay: Agonist activity at rat alpha1beta1delta1epsilon nAChR expressed in HEK293 cells assessed as increase in Ca2+ flux by Fluo-4 AM dye based FLIPR assay; assay type: cell-based
Nicotinic acetylcholine receptor alpha-1/beta-1/delta/epsilon, sequence (P25109 whole entry): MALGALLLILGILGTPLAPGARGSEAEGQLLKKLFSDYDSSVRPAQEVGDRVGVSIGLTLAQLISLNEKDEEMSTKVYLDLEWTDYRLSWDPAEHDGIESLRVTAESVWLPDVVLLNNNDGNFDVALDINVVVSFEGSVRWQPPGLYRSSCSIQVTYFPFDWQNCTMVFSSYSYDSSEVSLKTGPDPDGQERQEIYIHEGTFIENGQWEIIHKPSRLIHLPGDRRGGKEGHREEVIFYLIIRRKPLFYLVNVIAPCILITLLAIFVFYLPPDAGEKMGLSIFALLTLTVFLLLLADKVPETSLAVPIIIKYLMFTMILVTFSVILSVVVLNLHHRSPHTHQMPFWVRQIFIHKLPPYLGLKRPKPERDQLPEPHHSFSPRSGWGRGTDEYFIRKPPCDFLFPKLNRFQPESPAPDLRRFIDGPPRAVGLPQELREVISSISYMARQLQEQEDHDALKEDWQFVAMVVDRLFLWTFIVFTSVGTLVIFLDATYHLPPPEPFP
Nicotinic acetylcholine receptor alpha-1/beta-1/delta/epsilon, sequence (P25108 whole entry): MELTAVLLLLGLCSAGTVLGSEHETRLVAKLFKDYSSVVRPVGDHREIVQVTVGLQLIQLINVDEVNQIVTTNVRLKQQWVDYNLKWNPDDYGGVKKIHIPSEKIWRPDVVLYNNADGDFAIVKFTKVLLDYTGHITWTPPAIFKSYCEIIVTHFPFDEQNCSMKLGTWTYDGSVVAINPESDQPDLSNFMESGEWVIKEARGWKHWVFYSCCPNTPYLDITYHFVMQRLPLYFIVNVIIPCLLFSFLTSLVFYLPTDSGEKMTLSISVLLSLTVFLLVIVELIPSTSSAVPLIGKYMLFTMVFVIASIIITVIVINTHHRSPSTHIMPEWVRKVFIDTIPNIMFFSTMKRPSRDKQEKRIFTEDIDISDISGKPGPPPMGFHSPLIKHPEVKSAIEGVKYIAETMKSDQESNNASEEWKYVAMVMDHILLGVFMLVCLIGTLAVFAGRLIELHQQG
Nicotinic acetylcholine receptor alpha-1/beta-1/delta/epsilon, sequence (P25110 whole entry): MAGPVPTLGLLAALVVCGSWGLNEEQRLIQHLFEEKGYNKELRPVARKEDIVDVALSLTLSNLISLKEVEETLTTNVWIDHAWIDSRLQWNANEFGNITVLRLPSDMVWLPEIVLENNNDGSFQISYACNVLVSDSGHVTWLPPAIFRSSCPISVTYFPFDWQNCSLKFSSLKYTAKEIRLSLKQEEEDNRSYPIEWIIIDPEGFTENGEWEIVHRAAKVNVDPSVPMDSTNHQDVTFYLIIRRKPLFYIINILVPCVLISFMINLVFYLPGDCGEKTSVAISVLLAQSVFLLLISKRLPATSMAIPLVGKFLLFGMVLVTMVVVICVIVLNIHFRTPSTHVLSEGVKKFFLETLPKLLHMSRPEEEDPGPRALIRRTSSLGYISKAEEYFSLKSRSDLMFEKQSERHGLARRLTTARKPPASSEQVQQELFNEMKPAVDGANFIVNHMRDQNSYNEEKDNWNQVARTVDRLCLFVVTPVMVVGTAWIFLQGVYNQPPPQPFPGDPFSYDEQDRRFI
Nicotinic acetylcholine receptor alpha-1/beta-1/delta/epsilon, sequence (P09660 whole entry): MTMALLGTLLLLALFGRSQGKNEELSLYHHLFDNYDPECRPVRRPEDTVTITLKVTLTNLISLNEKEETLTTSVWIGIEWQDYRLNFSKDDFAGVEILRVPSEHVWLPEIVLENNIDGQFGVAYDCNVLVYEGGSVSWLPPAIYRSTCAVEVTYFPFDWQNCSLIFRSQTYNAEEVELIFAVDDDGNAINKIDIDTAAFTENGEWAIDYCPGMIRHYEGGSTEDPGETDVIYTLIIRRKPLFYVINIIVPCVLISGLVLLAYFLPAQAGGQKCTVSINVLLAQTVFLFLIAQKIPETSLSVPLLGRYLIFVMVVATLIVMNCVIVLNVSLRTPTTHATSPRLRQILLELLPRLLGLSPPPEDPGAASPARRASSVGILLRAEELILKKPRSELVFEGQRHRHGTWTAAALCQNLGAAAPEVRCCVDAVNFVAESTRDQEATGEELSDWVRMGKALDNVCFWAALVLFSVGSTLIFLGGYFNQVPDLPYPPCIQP

[7] = target: Neuronal acetylcholine receptor; alpha3/beta4 (Rattus norvegicus, UniProt P04757+P12392); assay: Agonist activity at rat alpha3beta4 nAChR expressed in HEK293 cells assessed as increase in Ca2+ flux by Fluo-4 AM dye based FLIPR assay; assay type: cell-based
[8] = target: Neuronal acetylcholine receptor; alpha4/beta2 (Rattus norvegicus, UniProt P09483+P12390); assay: Agonist activity at rat alpha4beta2 nAChR expressed in HEK293 cells assessed as increase in Ca2+ flux by Fluo-4 AM dye based FLIPR assay; assay type: cell-based
[9] = target: Muscarinic acetylcholine receptor M1 (Homo sapiens) (UniProt P11229); assay: Activity at human muscarinic M1 receptor
[10] = target: Muscarinic acetylcholine receptor M3 (Homo sapiens) (UniProt P20309); assay: Activity at human muscarinic M3 receptor
[11] = target: Muscarinic acetylcholine receptor M4 (Homo sapiens) (UniProt P08173); assay: Activity at human muscarinic M4 receptor
Muscarinic acetylcholine receptor M4 (Homo sapiens), sequence (P08173 whole entry): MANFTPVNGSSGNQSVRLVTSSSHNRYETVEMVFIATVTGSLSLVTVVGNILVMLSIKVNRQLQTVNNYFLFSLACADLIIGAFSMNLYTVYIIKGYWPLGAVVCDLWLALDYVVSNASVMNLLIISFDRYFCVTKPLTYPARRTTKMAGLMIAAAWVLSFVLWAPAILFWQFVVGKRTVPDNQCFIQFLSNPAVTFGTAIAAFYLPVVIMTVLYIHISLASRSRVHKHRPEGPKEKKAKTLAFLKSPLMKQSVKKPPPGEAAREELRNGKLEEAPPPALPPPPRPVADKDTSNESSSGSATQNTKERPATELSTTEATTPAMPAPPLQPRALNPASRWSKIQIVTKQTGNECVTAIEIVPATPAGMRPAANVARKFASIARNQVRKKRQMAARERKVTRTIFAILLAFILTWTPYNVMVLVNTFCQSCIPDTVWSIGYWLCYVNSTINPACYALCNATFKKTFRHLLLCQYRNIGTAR

[12] = target: Muscarinic acetylcholine receptor M5 (Homo sapiens) (UniProt P08912); assay: Activity at human muscarinic M5 receptor
[13] = Metabolic stability in human liver microsomes assessed as compound remaining at 3 uM after 10 mins by LC-MS/MS analysis; assay type: ADME, microsome; details: read-out: Stability
[14] = Metabolic stability in rat liver microsomes assessed as compound remaining at 3 uM after 10 mins by LC-MS/MS analysis; assay type: ADME, microsome; details: read-out: Stability
[15] = Metabolic stability in dog liver microsomes assessed as compound remaining at 3 uM after 10 mins by LC-MS/MS analysis; assay type: ADME, Canis lupus familiaris, microsome; details: read-out: Stability
[16] = Metabolic stability in monkey liver microsomes assessed as compound remaining at 3 uM after 10 mins by LC-MS/MS analysis; assay type: ADME, Macaca mulatta, microsome; details: rhesus monkey, read-out: Stability
Cytochrome P450 3A4 [17] = target: T3, Cytochrome P450 3A4 (Homo sapiens, UniProt P08684); assay: Inhibition of recombinant human CYP3A4 using fluorogenic substrate BFC preincubated for 30 mins and measured after 20 to 60 mins in presence of NADPH regenerating system by fluorescence assay; assay type: ADME
T3 sequence (P08684 whole entry): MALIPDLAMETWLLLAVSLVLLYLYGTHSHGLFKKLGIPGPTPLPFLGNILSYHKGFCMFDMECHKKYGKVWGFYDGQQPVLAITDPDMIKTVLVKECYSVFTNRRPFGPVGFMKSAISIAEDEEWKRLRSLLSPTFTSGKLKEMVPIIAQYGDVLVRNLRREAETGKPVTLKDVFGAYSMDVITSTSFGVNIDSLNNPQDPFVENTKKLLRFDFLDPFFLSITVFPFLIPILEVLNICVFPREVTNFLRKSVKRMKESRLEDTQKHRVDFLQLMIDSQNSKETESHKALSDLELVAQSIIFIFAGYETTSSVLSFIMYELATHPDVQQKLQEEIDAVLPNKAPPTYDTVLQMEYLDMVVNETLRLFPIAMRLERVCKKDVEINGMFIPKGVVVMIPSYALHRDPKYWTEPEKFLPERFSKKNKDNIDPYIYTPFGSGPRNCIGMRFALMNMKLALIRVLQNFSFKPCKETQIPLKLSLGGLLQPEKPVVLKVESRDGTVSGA

Cytochrome P450 3A4 [18] = target: T3, Cytochrome P450 3A4; assay: Inhibition of recombinant human CYP3A4 using fluorogenic substrate BZR preincubated for 30 mins and measured after 20 to 60 mins in presence of NADPH regenerating system by fluorescence assay; assay type: ADME
Cytochrome P450 2B6 = Cytochrome P450 2B6 (Homo sapiens, UniProt P20813); assay: Inhibition of recombinant human CYP2B6 using fluorogenic substrate preincubated for 30 mins and measured after 20 to 60 mins in presence of NADPH regenerating system by fluorescence assay; assay type: ADME
Cytochrome P450 2B6, sequence (P20813 whole entry): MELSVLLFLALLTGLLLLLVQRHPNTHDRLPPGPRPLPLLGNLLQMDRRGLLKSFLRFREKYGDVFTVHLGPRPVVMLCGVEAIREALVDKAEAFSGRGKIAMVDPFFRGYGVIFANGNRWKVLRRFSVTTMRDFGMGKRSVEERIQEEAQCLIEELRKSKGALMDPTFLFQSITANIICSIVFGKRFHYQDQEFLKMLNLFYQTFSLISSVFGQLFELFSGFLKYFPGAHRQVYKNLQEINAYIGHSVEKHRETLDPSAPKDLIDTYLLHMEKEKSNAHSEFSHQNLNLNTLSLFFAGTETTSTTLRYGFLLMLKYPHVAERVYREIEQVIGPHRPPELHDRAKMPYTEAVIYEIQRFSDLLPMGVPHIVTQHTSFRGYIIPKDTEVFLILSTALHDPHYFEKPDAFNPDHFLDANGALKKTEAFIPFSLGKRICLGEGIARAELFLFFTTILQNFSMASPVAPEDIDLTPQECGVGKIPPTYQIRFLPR

Cytochrome P450 2C8 = Cytochrome P450 2C8 (Homo sapiens, UniProt P10632); assay: Inhibition of recombinant human CYP2C8 using fluorogenic substrate preincubated for 30 mins and measured after 20 to 60 mins in presence of NADPH regenerating system by fluorescence assay; assay type: ADME
Cytochrome P450 2D6 = Cytochrome P450 2D6 (Homo sapiens, UniProt P10635); assay: Inhibition of recombinant human CYP2D6 using fluorogenic substrate preincubated for 30 mins and measured after 20 to 60 mins in presence of NADPH regenerating system by fluorescence assay; assay type: ADME
Cytochrome P450 2D6, sequence (P10635 whole entry): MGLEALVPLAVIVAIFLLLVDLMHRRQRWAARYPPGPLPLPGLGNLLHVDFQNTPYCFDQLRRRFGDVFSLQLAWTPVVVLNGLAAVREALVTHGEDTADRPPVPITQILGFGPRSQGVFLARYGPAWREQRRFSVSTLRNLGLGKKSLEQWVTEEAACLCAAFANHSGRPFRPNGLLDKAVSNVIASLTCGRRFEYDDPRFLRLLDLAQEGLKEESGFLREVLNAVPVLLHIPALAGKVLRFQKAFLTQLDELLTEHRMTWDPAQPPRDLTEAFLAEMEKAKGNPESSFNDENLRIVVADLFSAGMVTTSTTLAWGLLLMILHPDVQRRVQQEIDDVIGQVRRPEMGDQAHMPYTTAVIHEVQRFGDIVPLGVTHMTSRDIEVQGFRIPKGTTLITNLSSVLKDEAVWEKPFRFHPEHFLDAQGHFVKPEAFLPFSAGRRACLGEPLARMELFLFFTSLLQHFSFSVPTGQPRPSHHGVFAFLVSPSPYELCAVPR

[19] = Fraction unbound in human plasma at 10 uM after 4 hrs by equilibrium dialysis method; assay type: ADME, cell-free
[20] = Fraction unbound in rat plasma at 10 uM after 4 hrs by equilibrium dialysis method; assay type: ADME, cell-free
[21] = Fraction unbound in mouse plasma at 10 uM after 4 hrs by equilibrium dialysis method; assay type: ADME, cell-free
[22] = Fraction unbound in dog plasma at 10 uM after 4 hrs by equilibrium dialysis method; assay type: ADME, cell-free, Canis lupus familiaris
[23] = Fraction unbound in monkey plasma at 10 uM after 4 hrs by equilibrium dialysis method; assay type: ADME, cell-free, Macaca mulatta; details: rhesus monkey
Mus musculus [24] = assay: Cognitive enhancing effect in C57Bl/6 mouse assessed as time spent on exploring novel objects at 0.1 to 10 mg/kg, sc administered 30 mins prior to test and measured after 24 hrs by novel object recognition test; assay type: functional, organism-based
[25] = Fraction unbound in C57Bl/6 mouse plasma at 0.1 mg/kg, sc after 30 mins; assay type: ADME, organism-based
[26] = Drug level in C57Bl/6 mouse plasma at 0.1 mg/kg, sc after 30 mins; assay type: ADME, organism-based
[27] = Volume of distribution at steady state in mouse at 1 mg/kg, iv administered as 5 mins infusion; assay type: ADME, organism-based; details: in vivo, read-out: Vdss
[28] = Total plasma clearance in mouse at 1 mg/kg, iv administered as 5 mins infusion; assay type: ADME, organism-based
[29] = Half life in mouse at 1 mg/kg, iv administered as 5 mins infusion; assay type: ADME, organism-based; details: in vivo
[30] = AUC in mouse at 1 mg/kg, iv administered as 5 mins infusion; assay type: ADME, organism-based; details: in vivo
[31] = Ratio of drug level in mouse brain to plasma at 1 mg/kg, iv administered as 5 mins infusion after 30 mins; assay type: ADME, organism-based; details: brain and plasma, read-out: BPR
[32] = Volume of distribution at steady state in rat at 1 mg/kg, iv administered as 5 mins infusion; assay type: ADME, organism-based; details: in vivo, read-out: Vdss
[33] = Cmax in mouse at 10 mg/kg, po; assay type: ADME, organism-based; parameters: dose 10 mg/kg, route oral; details: in vivo
[34] = AUC in mouse at 10 mg/kg, po; assay type: ADME, organism-based; details: in vivo
[35] = Oral bioavailability in mouse at 10 mg/kg; assay type: ADME, organism-based; details: in vivo
[36] = Total plasma clearance in rat at 1 mg/kg, iv administered as 5 mins infusion; assay type: ADME, organism-based
[37] = Half life in rat at 1 mg/kg, iv administered as 5 mins infusion; assay type: ADME, organism-based; details: in vivo
[38] = AUC in rat at 1 mg/kg, iv administered as 5 mins infusion; assay type: ADME, organism-based; details: in vivo
[39] = Cmax in rat at 10 mg/kg, po; assay type: ADME, organism-based; parameters: dose 10 mg/kg, route oral; details: in vivo
[40] = AUC in rat at 10 mg/kg, po; assay type: ADME, organism-based; details: in vivo
[41] = Oral bioavailability in rat at 10 mg/kg; assay type: ADME, organism-based; details: in vivo
[42] = Volume of distribution at steady state in dog at 1 mg/kg, iv administered as 5 mins infusion; assay type: ADME, organism-based, Canis lupus familiaris; details: in vivo, read-out: Vdss
[43] = Total plasma clearance in dog at 1 mg/kg, iv administered as 5 mins infusion; assay type: ADME, organism-based, Canis lupus familiaris
[44] = Half life in dog at 1 mg/kg, iv administered as 5 mins infusion; assay type: ADME, organism-based, Canis lupus familiaris; details: in vivo
[45] = AUC in dog at 1 mg/kg, iv administered as 5 mins infusion; assay type: ADME, organism-based, Canis lupus familiaris; details: in vivo
[46] = Cmax in dog at 5 mg/kg, po; assay type: ADME, organism-based, Canis lupus familiaris; parameters: dose 5 mg/kg, route oral; details: in vivo
[47] = AUC in dog at 5 mg/kg, po; assay type: ADME, organism-based, Canis lupus familiaris; details: in vivo
[48] = Oral bioavailability in dog at 5 mg/kg; assay type: ADME, organism-based, Canis lupus familiaris; details: in vivo
[49] = Volume of distribution at steady state in cynomolgus monkey at 1 mg/kg, iv administered as 5 mins infusion; assay type: ADME, organism-based, Macaca fascicularis; details: in vivo, read-out: Vdss
[50] = Total plasma clearance in cynomolgus monkey at 1 mg/kg, iv administered as 5 mins infusion; assay type: ADME, organism-based, Macaca fascicularis
[51] = Half life in cynomolgus monkey at 1 mg/kg, iv administered as 5 mins infusion; assay type: ADME, organism-based, Macaca fascicularis; details: in vivo
[52] = AUC in cynomolgus monkey at 1 mg/kg, iv administered as 5 mins infusion; assay type: ADME, organism-based, Macaca fascicularis; details: in vivo
[53] = Cmax in cynomolgus monkey at 5 mg/kg, po; assay type: ADME, organism-based, Macaca fascicularis; parameters: dose 5 mg/kg, route oral; details: in vivo
[54] = AUC in cynomolgus monkey at 5 mg/kg, po; assay type: ADME, organism-based, Macaca fascicularis; details: in vivo
[55] = Oral bioavailability in cynomolgus monkey at 5 mg/kg; assay type: ADME, organism-based, Macaca fascicularis; details: in vivo
Mus musculus [56] = assay: Cognitive enhancing effect in C57Bl/6 mouse assessed as time spent on exploring novel objects administered subcutaneously 30 mins prior to test and measured after 24 hrs by novel object recognition test; assay type: functional; details: C57Bl/6, sc, read-out: MED
[57] = Metabolic stability in mouse liver microsomes assessed as compound remaining at 3 uM after 10 mins by LC-MS/MS analysis; assay type: ADME, microsome; details: read-out: Stability

## c1cn(-c2cc(NC3=NC[C@@]4(CN5CCC4CC5)O3)ncn2)cn1
[1]
  EC50: 0.023 µM
[2]
  EC50: 0.1 µM
[3]
  %max: 24%
[4]
  %max: 78%
[5]
  EC50: 0.3 µM
[6]
  EC50: > 100 µM
[7]
  EC50: > 100 µM
[8]
  EC50: > 100 µM
[9]
  Activity: inactive
[10]
  Activity: inactive
[11]
  Activity: inactive
[12]
  Activity: inactive
[13]
  remaining at 10 min, 3 µM: 91%
[14]
  remaining at 10 min, 3 µM: 95%
[15]
  remaining at 10 min, 3 µM: 98%
[16]
  remaining at 10 min, 3 µM: 100%
Cytochrome P450 3A4 [17]
  IC50: > 30 µM
Cytochrome P450 3A4 [18]
  IC50: > 30 µM
Cytochrome P450 2B6
  IC50: > 30 µM
Cytochrome P450 2C8
  IC50: > 30 µM
Cytochrome P450 2D6
  IC50: > 30 µM
[19]
  fraction unbound at 4 h, 10 µM: 0.87
[20]
  fraction unbound at 4 h, 10 µM: 0.87
[21]
  fraction unbound at 4 h, 10 µM: 0.84
[22]
  fraction unbound at 4 h, 10 µM: 0.93
[23]
  fraction unbound at 4 h, 10 µM: 0.87
Mus musculus [24]
  Activity: Active
[25]
  fraction unbound at 0.5 h: 0.84
[26]
  concentration at 0.5 h: 52 nM
[27]
  Vd: 7 L/kg
[28]
  clearance: 96 mL/min/kg
[29]
  half-life: 1.1 h
[30]
  AUC at 5 min: 0.53 µM·h
[31]
  Kp at 0.5 h: 0.21
[32]
  Vd: 2.9 L/kg
[33]
  Cmax: 550 nM
[34]
  AUC: 3.2 µM·h
[35]
  bioavailability: 45%
[36]
  clearance: 70 mL/min/kg
[37]
  half-life: 0.7 h
[38]
  AUC at 5 min: 0.75 µM·h
[39]
  Cmax: 1600 nM
[40]
  AUC: 7.2 µM·h
[41]
  bioavailability: 97%
[42]
  Vd: 5.5 L/kg
[43]
  clearance: 15 mL/min/kg
[44]
  half-life: 5.5 h
[45]
  AUC at 5 min: 3.4 µM·h
[46]
  Cmax: 3200 nM
[47]
  AUC: 19 µM·h
[48]
  bioavailability: 100%
[49]
  Vd: 5.7 L/kg
[50]
  clearance: 17 mL/min/kg
[51]
  half-life: 4.4 h
[52]
  AUC at 5 min: 3 µM·h
[53]
  Cmax: 1300 nM
[54]
  AUC: 11 µM·h
[55]
  bioavailability: 70%
Mus musculus [56]
  minimal effective dose: 0.1 mg/kg
[57]
  remaining at 10 min, 3 µM: 93%
